How the values were obtained:
[1] = system: metastatic castration-resistant prostate cancer (mCRPC) with a qualifying alteration in any of 15 prespecified HRR genes; test: Phase III trial NCT02987543, efficacy in the overall population (Cohorts A + B); format: in vivo, human
Excerpt: (§1) Patient population. In clinical trial NCT02987543, eligible patients were male, aged ≥18 years with histological diagnosis of prostate cancer, confirmed mCRPC, whose disease had progressed after one or more treatments with new hormonal agent (NHA) (e.g., enzalutamide or abiraterone, administered for metastatic or non-metastatic castration-resistant prostate cancer, as well as metastatic hormone-sensitive prostate cancer). Prior taxane chemotherapy was allowed. Men without prior surgical castration were required to continue luteinizing-hormone-releasing hormone analog therapy. Patients had adequate organ and bone marrow function. Full eligibility criteria are provided in the trial protocol. All patients provided written informed consent. An investigational clinical trial assay, based on the FoundationOne® CDx next-generation sequencing test was used to prospectively identify patients with qualifying deleterious or suspected deleterious alterations in one or more of the 15 prespecified genes selected for their direct or indirect role in HRR: BRCA1, BRCA2, ATM, BRIP1, BARD1, CDK12, CHEK1, CHEK2, FANCL, PALB2, PPP2R2A, RAD51B, RAD51C, RAD51D, and RAD54L. Tumor testing was conducted centrally using archival or recent biopsy tissue from primary or metastatic disease. Presence of deleterious or suspected deleterious alteration by the central tumor test was required for eligibility, irrespective of the zygosity of the alteration.
(§2) Study design. This was a prospective, randomized, open-label, Phase III study. Eligible patients were included in one of two cohorts depending on their qualifying gene alteration. Cohort A included patients with BRCA1, BRCA2 and/or ATM alterations, regardless of co-occurring qualifying alterations in any of the other genes. Cohort B included patients with alterations in any of the other 12 genes. The overall population comprised patients from Cohort A and Cohort B (i.e., patients with a qualifying alteration in any of the 15 prespecified genes).
(§3) Randomization was stratified by previous taxane use (yes/no) and measurable disease (yes/no). Treatment was continued until objective radiographic disease progression assessed by a third-party vendor blinded independent central review (BICR), or unacceptable toxicity. Patients randomized to the control arm were eligible to cross over to olaparib treatment upon BICR-confirmed radiographic progression.
(§4) The primary endpoint was rPFS assessed by BICR in patients with BRCA1, BRCA2, and/or ATM alterations (Cohort A). rPFS was defined as the time from randomization until soft-tissue disease progression (by Response Evaluation Criteria in Solid Tumors (RECIST) v1.1), bone lesion progression (by Prostate Cancer Working Group 3 (PCWG3) criteria) or death. A prespecified sensitivity analysis of rPFS based on investigator assessment was performed. rPFS by BICR in the overall population was also a secondary endpoint.
(§5) Additional secondary endpoints evaluated included confirmed radiographic objective response rate (ORR), time to pain progression (TTPP), overall survival (OS), prostate-specific antigen (PSA) response (PSA50 response) and circulating tumor cell (CTC) conversion rate. ORR was assessed among evaluable patients who had measurable disease at baseline as assessed by BICR using RECIST v1.1 (responses were also assessed by BICR using RECIST v1.1, were confirmed and required absence of progression on bone scan assessed by PCWG3). OS is defined as time from randomization to time point at which death due to any cause occurs. A pre-specified sensitivity analysis for the crossover effect on OS was performed. Safety was assessed in the overall population through reporting of Common Terminology Criteria for Adverse Events (CTCAE) v4.0 and collection of clinical chemistry and hematology parameters.
(§6) Time to pain progression (TTPP) was based on Brief Pain Inventory-Short Form item 3 ('worst pain in 24 hours) and initiation of opiate analgesic use (Analgesic Quantification Algorithm score). […]

[2] = system: metastatic castration-resistant prostate cancer (mCRPC) with BRCA1, BRCA2, and/or ATM alterations; test: Phase III trial NCT02987543, efficacy in Cohort A (alterations in BRCA1, BRCA2 and/or ATM); format: in vivo, human
Excerpt: as §1, §2, §3, §4, §5, §6

[3] = Phase III trial NCT02987543, safety (adverse events, CTCAE v4.0) in the overall population; format: in vivo
Description: as §5
Blood samples for PSA assessments were collected at baseline, every 4 weeks until week 24, then every 8 weeks until study treatment discontinuation, and for CTC analyses were collected at baseline and then every 8 weeks until study treatment discontinuation. Overall survival was assessed every 12 weeks after progression. Adverse events (AEs) were graded according to the National Cancer Institute Common Terminology Criteria for Adverse Events version 4.0. […]
Statistical analysis. Efficacy data were analyzed on an intent-to-treat basis and safety data were reported for all patients who received ≥1 dose of trial treatment. […] For time-to-event endpoints, rPFS, time to pain progression, and OS, P-values were calculated using log-rank tests, stratified by stratification factors. […] The Kaplan-Meier method was used to calculate medians for each trial arm. Logistic regression models adjusted for stratification factors were used to analyze objective responses. A multiple-testing procedure was used to control for the study-wide type 1 error rate. […] For OS, the two-sided 5% level of alpha was split at the interim (0.01) and final (0.047) analyses using an O′Brien-Fleming spending function.

[4] = overall population, evaluable patients
[5] = overall population, olaparib vs control

O=C(c1cc(Cc2n[nH]c(=O)c3ccccc23)ccc1F)N1CCN(C(=O)C2CC2)CC1 [Olaparib, 4-[(3-{[4-(cyclopropane-carbonyl)piperazine-1-yl]carbonyl}-4-fluorophenyl)methyl]-2H-phthalazin-1-one]
Median TTPP (months), sensitivity analysis including any death as an event ([1]; Cohorts A + B (overall population)): 11.89 months | TTPP Pain severity, Events (%) ([1]; overall population): 9.4% | TTPP Pain severity, Events n ([1]; overall population): 24 n | TTPP Worst pain, Events (%) ([1]; overall population): 12.5% | TTPP Worst pain, Events n ([1]; overall population): 32 n | Time to Opiate use, Events (%) ([1]; overall population): 37.1% | Time to Opiate use, Events n ([1]; overall population): 65 n | Time to Opiate use, Median (m) ([1]; overall population): 18.0 m | median rPFS by BICR ([1]; overall population): 5.82 months | TTPP Pain severity, 6-month rate (%) ([1]; overall population, 6 months): 88.7% | TTPP Worst pain, 6-month rate (%) (free of pain progression) ([1]; overall population, 6 months): 85.2% | Time to Opiate use, 6-month rate (%) ([1]; overall population, 6 months): 25% | TTPP Pain severity, 12-month rate (%) ([1]; overall population, 12 months): 81.0% | TTPP Worst pain, 12-month rate (%) ([1]; overall population, 12 months): 76.3% | Time to Opiate use, 12-month rate (%) ([1]; overall population, 12 months): 41% | Median OS at interim analysis ([1]; overall population, data maturity 41%): 17.51 months | CTC conversion [1, 4]: 26.8% | PSA50 response [1, 4]: 30.0% | confirmed objective response rate [1, 4]: 21.7% | TTPP Pain severity, HR [1, 5]: 0.71 | TTPP Worst pain, HR [1, 5]: 0.64 | Time to Opiate use, HR [1, 5]: 0.67 | median progression free survival greater than for subjects receiving the standard of care treatment ([1]; overall subject population): at least 2 months | Median TTPP (months), sensitivity analysis including any death as an event [2]: 17.22 months | median OS (interim analysis) ([2]; data maturity 38%): 18.50 months | CTC conversion ([2]; evaluable patients): 29.9% | PSA50 response ([2]; evaluable patients): 43.1% | confirmed objective response rate ([2]; evaluable patients): 33.3% | reduction in risk for disease progression or death ([2]; olaparib vs control): 66% | median rPFS (radiographic progression-free survival) by BICR ([2]; primary endpoint): 7.39 months | Anemia, All grades, (%) [3]: (46.5) % | Anemia, Grade ≥3, (%) [3]: (21.5) % | Any adverse event, All grades, (%) [3]: (95.3) % | Any adverse event, Grade ≥3, (%) [3]: (50.8) % | Arthralgia, All grades, (%) [3]: (9.4) % | Arthralgia, Grade ≥3, (%) [3]: (0.4) % | Back pain, All grades, (%) [3]: (13.7) % | Back pain, Grade ≥3, (%) [3]: (0.8) % | Cough, All grades, (%) [3]: (10.9) % | Decreased appetite, All grades, (%) [3]: (30.1) % | Decreased appetite, Grade ≥3, (%) [3]: (1.2) % | Diarrhea, All grades, (%) [3]: (21.1) % | Diarrhea, Grade ≥3, (%) [3]: (0.8) % | Discontinuation of intervention due to adverse event, (%) [3]: (18.0) % | Dose reduction due to adverse event, (%) [3]: (22.3) % | Dyspnea, All grades, (%) [3]: (10.2) % | Dyspnea, Grade ≥3, (%) [3]: (2.3) % | Fatal adverse event, (%) [3]: (3.9) % | Fatigue & asthenia, All grades, (%) [3]: (41.0) % | Fatigue & asthenia, Grade ≥3, (%) [3]: (2.7) % | Interruption of intervention due to adverse event, (%) [3]: (44.9) % | Nausea, All grades, (%) [3]: (41.4) % | Nausea, Grade ≥3, (%) [3]: (1.2) % | Peripheral edema, All grades, (%) [3]: (12.5) % | Urinary tract infection, All grades, (%) [3]: (7.0) % | Urinary tract infection, Grade ≥3, (%) [3]: (1.6) % | Vomiting, All grades, (%) [3]: (18.4) % | Vomiting, Grade ≥3, (%) [3]: (2.3) % | patients reporting new primary malignancies [3]: 1 n | pulmonary embolism events, % [3]: 4.3% | pulmonary embolism events, number ([3]; none were fatal): 11

From patent publication US20250235451A1, “Methods of Delaying Pain Progression And Treating Prostate Cancer” (ASTRAZENECA AB, priority 2020, published 2025)
